EPA's ToxRefDB 2

What was measured:
rabbit [1] = conditions: Prenatal developmental toxicity study, other, Oral, Gavage/Intubation, dose end: 19 GD
rat [2] = conditions: Combined chronic toxicity/carcinogenicity; sprague dawley; Oral; Feed; dose end: 24 month; group: systemic; systemic / pathology microscopic / kidney / infiltration cellular + systemic / pathology microscopic / kidney / nephropathy
rat [3] = conditions: Subchronic dermal toxicity, sprague dawley, Topical, dose end: 28 day, group: systemic, systemic / clinical chemistry / alkaline phosphatase (alp/alk) / alkaline phosphatase (alp/alk) + systemic / clinical chemistry / glucose / …
dog [4] = conditions: Subchronic oral toxicity in nonrodent, beagle, Feed, dose end: 28 day, group: systemic, systemic / in life observation / food consumption / food consumption + systemic / in life observation / body weight / body weight + systemic…
rat [5] = conditions: Prenatal developmental toxicity study, other, Oral, Gavage/Intubation, dose end: 15 GD
rat [6] = conditions: Subchronic oral toxicity in rodents, sprague dawley, Feed, dose end: 28 day, group: systemic
rat [7] = conditions: Subchronic oral toxicity in rodents, sprague dawley, Feed, dose end: 3 month, group: systemic
dog [8] = conditions: Subchronic oral toxicity in nonrodent, beagle, Feed, dose end: 13 week, group: systemic, systemic / clinical chemistry / alanine aminotransferase (alt/sgpt) / alanine aminotransferase (alt/sgpt) + systemic / clinical chemistry / …
mouse [9] = conditions: Subchronic oral toxicity in rodents, other, Feed, dose end: 13 week, group: systemic
rat [10] = conditions: Prenatal developmental toxicity study, other, Oral, Gavage/Intubation, dose end: 15 GD; remark: listed apart in the source
mouse [11] = conditions: Other (NonGuideline or Guideline Not Listed), Oral, Feed, dose end: 59 day, group: cannot be grouped
mouse [12] = conditions: Carcinogenicity, other, Oral, Feed, dose end: 78 week, group: systemic
rabbit [13] = conditions: Prenatal developmental toxicity study, himalayan, Oral, Gavage/Intubation, dose end: 19 GD
rat [14] = conditions: Subchronic oral toxicity in rodents, sprague dawley, Gavage/Intubation, dose end: 28 day, group: systemic
dog [15] = conditions: Chronic toxicity; beagle; Oral; Feed; dose end: 52 week; group: systemic; systemic / clinical chemistry / creatinine / creatinine + systemic / clinical chemistry / urea nitrogen / urea + systemic / pathology …
[16] = group: developmental, systemic / in life observation / body weight / fetal weight
[17] = group: maternal, systemic / in life observation / body weight / body weight gain + systemic / in life observation / food consumption / food consumption
[18] = group: maternal, systemic / in life observation / body weight / body weight gain + systemic / in life observation / food consumption / food consumption + …
[19] = group: maternal, systemic / in life observation / body weight / body weight gain + systemic / in life observation / body weight / body weight + systemic / in…
[20] = systemic / pathology microscopic / kidney / [other] + systemic / pathology microscopic / kidney / dilatation + systemic / pathology …
[21] = systemic / pathology microscopic / kidney / proliferation
[22] = systemic / pathology microscopic / kidney / hyalinization + systemic / pathology microscopic / kidney / lesion(s) (nos)
[23] = systemic / pathology microscopic / kidney / hyalinization + systemic / pathology microscopic / kidney / lesion(s) (nos) + systemic / …
[24] = systemic / pathology microscopic / liver / hypertrophy
[25] = systemic / pathology microscopic / liver / hypertrophy + systemic / hematology / anemia / anemia - nos + systemic / hematology / erythrocyte…
[26] = group: developmental, developmental / developmental malformation / bone / incomplete ossification + developmental / developmental malformation / bone / irregular …
[27] = group: maternal, systemic / in life observation / body weight / body weight + systemic / in life observation / body weight / body weight gain + systemic / in…
[28] = systemic / pathology microscopic / liver / proliferation + systemic / organ weight / liver / absolute + systemic / organ weight / liver / …
[29] = systemic / pathology microscopic / liver / hypertrophy + systemic / pathology microscopic / liver / infiltration cellular + systemic / …
[30] = group: developmental, developmental / developmental malformation / bone / fused + developmental / developmental malformation / bone / misshapen + developmental / …
[31] = group: maternal, systemic / in life observation / food consumption / food consumption + reproductive / reproductive performance / postimplantation loss / …
[32] = systemic / pathology microscopic / kidney / dilatation + systemic / pathology microscopic / adrenal gland / fatty change + systemic / in …

CN1COCN(Cc2cnc(Cl)s2)/C1=N/[N+](=O)[O-] [Thiamethoxam]
LEL (rabbit [1]; [16]): 150 mg/kg/day
LOAEL (rabbit [1]; [16]): 150 mg/kg/day
NEL (rabbit [1]; [16]): 50 mg/kg/day
NOAEL (rabbit [1]; [16]): 50 mg/kg/day
LEL (rabbit [1]; [17]): 50 mg/kg/day
LOAEL (rabbit [1]; [17]): 50 mg/kg/day
NEL (rabbit [1]; [18]): 10 mg/kg/day
NOAEL (rabbit [1]; [18]): 10 mg/kg/day
LEL (rat [2]): 63 mg/kg/day
LOAEL (rat [2]): 63 mg/kg/day
NEL (rat [2]): 21 mg/kg/day
NOAEL (rat [2]): 21 mg/kg/day
LEL (rat [3]): 250 mg/kg/day
LOAEL (rat [3]): 250 mg/kg/day
NEL (rat [3]): 60 mg/kg/day
NOAEL (rat [3]): 60 mg/kg/day
LEL (dog [4]): 43 mg/kg/day
LOAEL (dog [4]): 43 mg/kg/day
NEL (dog [4]): 32.6 mg/kg/day
NOAEL (dog [4]): 32.6 mg/kg/day
LEL (rat [5]; [16]): 1000 mg/kg/day
LOAEL (rat [5]; [16]): 1000 mg/kg/day
NEL (rat [5]; [16]): 500 mg/kg/day
NOAEL (rat [5]; [16]): 500 mg/kg/day
LOAEL (rat [5]; group: maternal, systemic / in life observation / body weight / body weight gain): 500 mg/kg/day
LEL (rat [5]; [19]): 500 mg/kg/day
NEL (rat [5]; [19]): 100 mg/kg/day
NOAEL (rat [5]; [19]): 100 mg/kg/day
LOAEL (rat [6]; [20]): 81.7 mg/kg/day
NOAEL (rat [6]; [20]): 8.04 mg/kg/day
LEL (rat [6]; [21]): 8.04 mg/kg/day
NEL (rat [6]; [21]): < 8.04 mg/kg/day
LEL (rat [7]; [22]): 17.6 mg/kg/day
LOAEL (rat [7]; [22]): 17.6 mg/kg/day
NEL (rat [7]; [23]): 1.74 mg/kg/day
NOAEL (rat [7]; [23]): 1.74 mg/kg/day
LEL (dog [8]): 32 mg/kg/day
LOAEL (dog [8]): 32 mg/kg/day
NEL (dog [8]): 8.23 mg/kg/day
NOAEL (dog [8]): 8.23 mg/kg/day
LEL (mouse [9]; [24]): 14.3 mg/kg/day
LOAEL (mouse [9]; [24]): 14.3 mg/kg/day
NEL (mouse [9]; [25]): 1.41 mg/kg/day
NOAEL (mouse [9]; [25]): 1.41 mg/kg/day
LOAEL (rat [10]; [26]): 750 mg/kg/day
NEL (rat [10]; [26]): 30 mg/kg/day
NOAEL (rat [10]; [26]): 200 mg/kg/day
LEL (rat [10]; group: developmental, developmental / developmental malformation / bone / incomplete ossification + developmental / developmental malformation / bone / short …): 200 mg/kg/day
LEL (rat [10]; [27]): 200 mg/kg/day
LOAEL (rat [10]; [27]): 200 mg/kg/day
NEL (rat [10]; [27]): 30 mg/kg/day
NOAEL (rat [10]; [27]): 30 mg/kg/day
LEL (mouse [11]; systemic / pathology microscopic / liver / proliferation): 72 mg/kg/day
LOAEL (mouse [11]; [28]): > 386 mg/kg/day
NEL (mouse [11]; [28]): 16 mg/kg/day
NOAEL (mouse [11]; [28]): ≥ 386 mg/kg/day
NEL (mouse [12]; systemic / organ weight / liver / relative to body weight + systemic / pathology microscopic / liver / hypertrophy + systemic / pathology …): 479 mg/kg/day
LOAEL (mouse [12]; [29]): 63.8 mg/kg/day
NOAEL (mouse [12]; [29]): 2.63 mg/kg/day
LEL (rabbit [13]; [30]): 150 mg/kg/day
LOAEL (rabbit [13]; [30]): 150 mg/kg/day
NEL (rabbit [13]; [30]): 50 mg/kg/day
NOAEL (rabbit [13]; [30]): 50 mg/kg/day
LEL (rabbit [13]; group: maternal, systemic / in life observation / food consumption / food consumption): 50 mg/kg/day
LOAEL (rabbit [13]; [31]): 150 mg/kg/day
NEL (rabbit [13]; [31]): 15 mg/kg/day
NOAEL (rabbit [13]; [31]): 50 mg/kg/day
LOAEL (rat [14]; systemic / pathology microscopic / kidney / dilatation + systemic / pathology microscopic / adrenal gland / fatty change): 300 mg/kg/day
NEL (rat [14]; [32]): 100 mg/kg/day
NOAEL (rat [14]; [32]): 100 mg/kg/day
LEL (rat [14]; systemic / pathology microscopic / kidney / dilatation + systemic / pathology microscopic / adrenal gland / fatty change + systemic / …): 300 mg/kg/day
LEL (dog [15]): 21 mg/kg/day
LOAEL (dog [15]): 21 mg/kg/day
NEL (dog [15]): 4.05 mg/kg/day
NOAEL (dog [15]): 4.05 mg/kg/day
